Measured values taken from patent publication US20220177485A1, “CAMPTOTHECIN DERIVATIVE, PREPARATION METHOD THEREFOR AND APPLICATION THEREOF” (MARINE BIOMEDICAL RESEARCH INSTITUTE OF QINGDAO CO., LTD., priority 2018, published 2022).
Like-named read-outs stand apart in the source and are kept apart here.

Assays:
[1] = biological target: T1, epidermal growth factor (EGF) (Homo sapiens, UniProt P01133); assay: macromolecular interaction on chip, EGF; type: binding; details: for KD EGF: compound fixed on the chip, EGF 1 μM
T1 construct: epidermal growth factor (EGF)
Protocol: (§1) The experimental scheme: 1. Fixed the compounds on the chip:
(§2) Mobile phase were EGF (1 μM), FGF (1 μM), HSP90 (100 nM), FKBP12 (100 nM).
(§3) Detection whether small molecule compounds combined with the provided protein of heat shock protein (HSP90), epidermal growth factor (EGF) and fibroblast growth factor (FGF); and provide relevant data of combined dynamics.

[2] = biological target: fibroblast growth factor (FGF); assay: macromolecular interaction on chip, FGF; type: binding; details: compound fixed on the chip; FGF 1 μM
Protocol: as §1, §2, §3

[3] = biological target: heat shock protein (HSP90); assay: macromolecular interaction on chip, HSP90; type: binding; details: compound fixed on the chip; HSP90 100 nM
Protocol: as §1, §2, §3

[4] = test system: K562 cells (human chronic myeloid leukemia cells); assay: growth inhibition of tumor cells in vitro, K562; type: cell-based
Source text: (§4) We tested compounds target a variety of tumor cell for the growth inhibition to show its antitumor activity by using the method of the field technicians known. Chooses the tumor cell lines include: A549 cell non-small cell lung cancer cell line (people), K562 cells (human chronic myeloid leukemia cells), NCI-H1975 cells (non-small cell lung adenocarcinoma cancer cell), MDA-MB-231 cells (human breast cancer cells) and HCT-116 cells (human colon cancer cells).

[5] = test system: A549 cell non-small cell lung cancer cell line; assay: growth inhibition of tumor cells in vitro, A549; type: cell-based, human
Source text: as §4

[6] = K562 cell line, read-out: IC50 K562
[7] = Homo sapiens, A549, A549 cell line, read-out: IC50 A549
[8] = Homo sapiens, A549, read-out: IC50 A549, A549 cell line

T1 sequence (P01133 971-1023 limits assumed, species assumed): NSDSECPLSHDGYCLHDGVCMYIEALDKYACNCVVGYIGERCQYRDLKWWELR

SMILES | KD EGF [1] | KD FGF [2] | KD HSP90 [3] | melting point [°C] | IC50 [4, 6] [nM] | IC50 [5, 7] [nM] | also measured
CC[C@@]1(O)C(=O)OCc2c1cc1n(c2=O)Cc2c-1nc1cc3c(cc1c2CCc1ccc(N2CCOCC2)cc1)OCO3 [Compound 8, 20(S)-7-(4-(4-morpholino)phenethyl)-10,11-methylenedioxy-camptothecin] | No combination | No combination | No combination | – | – | – | –
CC[C@@]1(O)C(=O)OCc2c1cc1n(c2=O)Cc2c-1nc1cc3c(cc1c2CCc1ccc(N2CCCC2)cc1)OCO3 [Compound 9, 20(S)-7-(4-(pyrrolidin-1-yl)phenethyl)-10,11-methylenedioxy-camptothecin] | No combination | No combination | No combination | 205 to 207 | 1366 ± 12.5 | 1522 ± 10.5 | –
CC[C@@]1(O)C(=O)OCc2c1cc1n(c2=O)Cc2c-1nc1cc3c(cc1c2/C=C/c1ccccc1F)OCO3 [Compound 5, 20(S)-7-(2-fluorostyryl)-10,11-methylenedioxy-camptothecin] | No combination | No combination | No combination | > 250 | – | – | –
CC[C@@]1(O)C(=O)OCc2c1cc1n(c2=O)Cc2c-1nc1cc3c(cc1c2CCc1ccc(N2CCCCC2)cc1)OCO3 | – | – | – | > 250 | – | – | –
CC[C@@]1(O)C(=O)OCc2c1cc1n(c2=O)Cc2c-1nc1cc3c(cc1c2-c1ccc2c(c1)OCO2)OCO3 [Compound 38] | – | – | – | – | – | – | IC50 ([4]; K562, read-out: IC50 K562): 202 ± 7.32 nM; IC50 [5, 8]: 282 ± 7.77 nM
CC[C@@]1(O)C(=O)OCc2c1cc1n(c2=O)Cc2c-1nc1cc3c(cc1c2-c1ccc(F)cc1)OCO3 [Compound 32] | No combination | No combination | No combination | – | 963 ± 7.61 | – | –
CC[C@@]1(O)C(=O)OCc2c1cc1n(c2=O)Cc2c-1nc1cc3c(cc1c2CCc1cc(F)c(N2CCOCC2)c(F)c1)OCO3 [Compound 18, 20(S)-7-(3,5-difluoro-4-(4-morpholino)phenethyl)-10,11-methylenedioxy-camptothecin] | – | – | – | 246 to 247 | 489 ± 6.65 | – | –
CC[C@@]1(O)C(=O)OCc2c1cc1n(c2=O)Cc2c-1nc1cc3c(cc1c2-c1ccccc1)OCO3 [Compound 36] | – | – | – | – | 1327 ± 8.96 | 422 ± 10.3 | –
CC[C@@]1(O)C(=O)OCc2c1cc1n(c2=O)Cc2c-1nc1cc3c(cc1c2/C=C/c1cc(F)c(F)c(F)c1)OCO3 [Compound 7] | can combine | can combine | No combination | – | 1772 ± 9.68 | 1904 ± 8.64 | Kd [1]: 51.5 nM; Kd [2]: 53.6 nM
CC[C@@]1(O)C(=O)OCc2c1cc1n(c2=O)Cc2c-1nc1cc3c(cc1c2/C=C/c1cccc(F)c1)OCO3 [Compound 4, 20(S)-7-(3-fluorostyryl)-10,11-methylenedioxy-camptothecin] | No combination | No combination | No combination | > 250 | – | – | –
CC[C@@]1(O)C(=O)OCc2c1cc1n(c2=O)Cc2c-1nc1cc3c(cc1c2/C=C/c1ccc(F)cc1)OCO3 [Compound 3, 20(S)-7-(4-fluorostyryl)-10,11-methylenedioxy-camptothecin] | can combine | No combination | No combination | > 250 | 66 ± 3.65 | – | Kd [1]: 5.3 nM
CC[C@@]1(O)C(=O)OCc2c1cc1n(c2=O)Cc2c-1nc1cc3c(cc1c2-c1ccccc1F)OCO3 [Compound 41] | – | – | – | – | – | – | IC50 ([4]; K562, read-out: IC50 K562): 1037 ± 10.2 nM
CC[C@@]1(O)C(=O)OCc2c1cc1n(c2=O)Cc2c-1nc1cc3c(cc1c2CCN1CCCCC1)OCO3 [Compound 52, 20(S)-7-(2-(piperidin-1-yl)ethyl)-10,11-methylenedioxy-camptothecin] | No combination | can combine | No combination | – | – | – | Kd [2]: 7.15 nM
CC[C@@]1(O)C(=O)OCc2c1cc1n(c2=O)Cc2c-1nc1cc3c(cc1c2CCc1ccc(N2CCOCC2)c(F)c1)OCO3 [Compound 10, 20(S)-7-(3-fluoro-4-(4-morpholino)phenethyl)-10,11-methylenedioxy-camptothecin] | No combination | No combination | No combination | > 250 | 564 ± 9.85 | 1223 ± 8.75 | –
CC[C@@]1(O)C(=O)OCc2c1cc1n(c2=O)Cc2c-1nc1cc3c(cc1c2N1CCOCC1)OCO3 [Compound 43, 20(S)-7-morpholino-10,11-methylenedioxy-camptothecin] | – | – | – | > 250 | – | – | IC50 ([4]; K562, read-out: IC50 K562): 837 ± 9.44 nM
CC[C@@]1(O)C(=O)OCc2c1cc1n(c2=O)Cc2c-1nc1cc3c(cc1c2/C=C/C=C/c1ccccc1)OCO3 [Compound 1, 20(S)-7-(styrene-butadiene-yl)-10,11-methylenedioxy-camptothecin] | No combination | No combination | No combination | 206 to 214 | 1652 ± 10.6 | 763 ± 5.05 | –
CC[C@@]1(O)C(=O)OCc2c1cc1n(c2=O)Cc2c-1nc1cc3c(cc1c2-c1cc(C(F)(F)F)cc(C(F)(F)F)c1)OCO3 [Compound 33] | – | – | – | – | 702 ± 8.87 | 174 ± 8.62 | –
CC[C@@]1(O)C(=O)OCc2c1cc1n(c2=O)Cc2c-1nc1cc3c(cc1c2CCc1ccc(N2CCSCC2)cc1)OCO3 [Compound 20, 20(S)-7-(4-(4-thiomorpholino)phenethyl)-10,11-methylenedioxy-camptothecin] | – | – | – | 154 to 156 | 145 ± 4.35 | – | –
CC[C@@]1(O)C(=O)OCc2c1cc1n(c2=O)Cc2c-1nc1cc3c(cc1c2/C=C/c1ccc(F)c(F)c1)OCO3 [Compound 6] | No combination | can combine | No combination | – | 757 ± 8.62 | 530 ± 7.6 | Kd [2]: 8.99 nM
CC[C@@]1(O)C(=O)OCc2c1cc1n(c2=O)Cc2c-1nc1cc3c(cc1c2-c1ccc(F)cc1F)OCO3 [Compound 40] | – | – | – | – | – | – | IC50 ([4]; K562, read-out: IC50 K562): 1168 ± 9.69 nM; IC50 [5, 8]: 836 ± 8.69 nM
CC[C@@]1(O)C(=O)OCc2c1cc1n(c2=O)Cc2c-1nc1cc3c(cc1c2-c1ccc(F)c(F)c1)OCO3 [Compound 42] | – | – | – | – | 181 ± 8.55 | – | –
CC[C@@]1(O)C(=O)OCc2c1cc1n(c2=O)Cc2c-1nc1cc3c(cc1c2CCc1ccccc1N1CCCC1)OCO3 [Compound 16, 20(S)-7-(2-(pyrrolidin-1-yl)phenethyl)-10,11-methylenedioxy-camptothecin] | – | – | – | 139 to 140 | 115 ± 7.6 | – | –
CC[C@@]1(O)C(=O)OCc2c1cc1n(c2=O)Cc2c-1nc1cc3c(cc1c2CCc1cccc(N2CCOCC2)c1)OCO3 [Compound 14] | No combination | No combination | No combination | 163 to 165 | 1949 ± 15.7 | 10 to 50 | IC50 ([5]; A549 cell line, read-out: IC50 A549): 19 ± 3.47 nM
CC[C@@]1(O)C(=O)OCc2c1cc1n(c2=O)Cc2c-1nc1cc3c(cc1c2CCc1cc(F)c(N2CCCC2)c(F)c1)OCO3 | – | – | – | > 250 | – | – | –
CC[C@@]1(O)C(=O)OCc2c1cc1n(c2=O)Cc2c-1nc1cc3c(cc1c2-c1ccc(C(C)(C)C)cc1)OCO3 [Compound 37] | – | – | – | – | – | – | IC50 ([4]; K562, read-out: IC50 K562): 785 ± 9.23 nM; IC50 [5, 8]: 387 ± 3.75 nM
CC[C@@]1(O)C(=O)OCc2c1cc1n(c2=O)Cc2c-1nc1cc3c(cc1c2/C=C/C=C/c1ccc(OC)cc1)OCO3 [Compound 2] | No combination | No combination | No combination | – | 2693 ± 9.63 | 1268 ± 4.65 | –
